Source: article PMC4689457, “Immucillins ImmA and ImmH Are Effective and Non-toxic in the Treatment of Experimental Visceral Leishmaniasis” (PLoS Neglected Tropical Diseases, 2015)
Read-outs that look alike come from different tables or passages of the source.

Tests used:
[1] = system: L. (L.) infantum chagasi promastigotes; design: method as in PMID 25909893; settings: cited from earlier work
[2] = system: L. (L.) amazonensis promastigotes; design: method as in PMID 25909893; settings: cited from earlier work
[3] = system: L. (L.) infantum chagasi amastigotes; design: method as in PMID 25909893; settings: 10 μM; cited from earlier work
[4] = Body weight and renal/hepatic markers in sera of infected treated hamsters; assay type: in vivo, CB golden hamster
Description: (§1) The efficacy of immucillins was also assayed in the CB golden hamster susceptible model. Females, 8 weeks old, were infected through the intracardiac route with 2 x 10^7 amastigotes of L. (L.) infantum chagasi (strain IOC-L 3324) isolated from infected hamsters spleens. Thirty days after infection, the animals were treated with 2.5 mg/kg daily doses of Glucantime, IA, IH or SMIH, through the ip route, for five days. Ten days after complete treatment the animals were euthanized, their parasite load was determined in livers and the renal function evaluated in sera samples as described above.

[5] = system: L. (L.) infantum chagasi infection; assay: Survival, body and organ weights of infected treated BALB/c mice; assay type: in vivo; settings: end of the experiment
Description: (§2) Female BALB/c mice, 8 week old, were infected through the caudal vein with 10^7 amastigotes of L. (L.) infantum (strain IOC-L 3324) isolated from infected hamsters spleens. After 15 days of infection, mice (n = 5 per treatment) were injected by the intraperitoneal route (ip) with daily doses for 5 days of 2.5 mg/Kg of IA, IH, SMIH [30, 31] or the control drug Glucantime (Sanofi Aventis, batch 0929280802) (Fig 1). Immucillins were synthesized at the Ferrier Research Institute, Victoria University of Wellington, New Zealand. Uninfected and infected mice treated only with saline were included as controls for the treatment cohorts. On days 1, 15, and 30 after complete treatment, the animals were euthanized with CO2. Blood samples were collected for sera analysis and weight of spleens, livers and total body were determined. Spleens were also used for determination of cytokine expression. The parasite load was evaluated in Giemsa-stained liver smears and expressed in LDU values (Leishman Donovan units of Stauber = number of amastigotes per 1000 liver cell nuclei/mg of liver weight). The levels of urea, creatinine, glutamate pyruvate transaminase (GPT) and glutamate oxaloacetate transaminase ([…]) were assessed in plasma by standard clinical laboratory procedures using a Wiener lab Metrolab 2300 (Laborlife Análises Clínicas laboratory, Rio de Janeiro).

[6] = system: L. (L.) infantum chagasi; assay: Liver parasite load (LDU) in infected BALB/c mice after chemotherapy; assay type: in vivo; settings: 2.5 mg/kg/day ip 5 days
Description: as §2

[7] = system: L. (L.) infantum chagasi; assay: Liver parasite load in infected CB hamsters after chemotherapy; assay type: in vivo, CB golden hamster; settings: 2.5 mg/kg/day ip 5 days, 10 days after complete treatment; for liver parasite load: untreated 16,334 LDU
Description: as §1

[8] = system: CD4+, CD8+ and CD19+ lymphocytes; assay: CD4+, CD8+ and CD19+ lymphocyte frequencies by flow cytometry in splenocytes of uninfected treated mice; assay type: cell-based, BALB/c mice; settings: for CD8+ T cell frequencies: day 1 after treatment
Description: (§3) Female BALB/c mice, 8 weeks old, were injected intraperitoneally with daily doses 2.5 mg/Kg of IA, IH, SMIH or Glucantime during five days and euthanized on day 1, 15 and 30 after complete treatment. For evaluation of the T cell response, spleens were removed and splenocytes were incubated for 24 h in vitro with the lysate of 10^6 stationary phase promastigotes of L. (L.) infantum chagasi (MHOM/BR/1974/PP75), with 25 μg/mL NH36, at 37°C and 5% CO2, during 72 h for the assay of the cytokine expression in the supernatants. Additionally, splenocytes from uninfected BALB/c mice either untreated or previously treated with IA, IH, SMIH or Glucantime were incubated in vitro with 10 μg/mL of each respective drug. For flow cytometry analysis (FACS analysis), splenocytes were incubated for 24 h with the antigens or drugs, labeled with anti-CD4FITC (clone GK1.5), anti-CD8FITC (clone 53–6.7) monoclonal antibodies (R&D systems, Inc) or with rat anti-mouse CD19-PerCP-Cy5.5 and 100,000 lymphocyte counts were acquired using a BD FACScalibur apparatus. Data was analyzed using the Flow-Jo program. The secretion of cytokines was evaluated in the supernatants of splenocytes by an ELISA assay.

[9] = biological target: L. (L.) donovani recombinant NH36; design: method as in PMID 25909893; settings: ref 29; read-out: Ki, inhibition of NH36 enzymatic activity; cited from earlier work
[10] = system: macrophage; design: method as in PMID 25909893; settings: 10 μM; cited from earlier work
[11] = system: IgG2a response, IL-10; settings: cited from earlier work; for IL-10 reduction: 1 day after complete treatment
[12] = system: amastigotes; settings: cited from earlier work
[13] = system: visceral leishmaniasis; settings: oral therapy, cited from earlier work
[14] = system: anti-NH36 IgG, IgG1 and IgG2a antibodies; assay: Anti-NH36 antibody ELISA in sera of infected treated mice; assay type: in vivo, BALB/c mice
Description: The NH36 gene of Leishmania (L.) donovani (EMBL, Genbank and DDJB data bases, access number AY007193) with a His6tag at the C-terminal was cloned in E. coli Bl21DE3. Expression of the recombinant NH36 was obtained by induction with 0.5mM IPTG and overnight incubation at 20°C. Cultures were harvested by centrifugation and the pellets submitted to sonication during 10 minutes with cycles of 30 sec. and intervals of 55 sec. Sonicates were centrifuged and their supernatants separated for purification by column chromatography using Ni-NTA Superflow resin (Qiagen, USA). The column was eluted with a 50mM potassium phosphate, 300 mM NaCl buffer, pH: 8.0, using a 50 to 300mM imidazole gradient. The fraction containing NH36 recombinant antigen was recovered, dyalized and preserved at -80°C. Sera were collected from mice by intracardiac puncture on day 1, 15 and 30 following complete chemotherapy and assayed for the presence of anti-NH36 IgG, IgG1 and IgG2a antibodies. For that purpose the recombinant NH36 antigen (40 μg/mL) was solubilized in 0.1M sodium carbonate buffer (8.4 g of NaHCO3, 3.56 g of Na2CO3 per L; pH 9.6), and used to coat flat-bottom 96-well plates. Antibodies were detected by goat anti-mice IgG (Sigma), anti-IgG1 and anti-IgG2a peroxidase-conjugates (Southern Biotechnology Associates, Birmingham, AL, EEUU) in a 1:1000 dilution. The absorbance values at 492 ηm were compared using a 1:100 dilution of the serum samples. Results are expressed as mean values of triplicates. We used the mean average + 2 SD of serum from normal uninfected controls in order to calculate the cut-off value according to the Youden test.

[15] = Renal and hepatic function markers in plasma of mice; assay type: in vivo, BALB/c mice
Description: as §2

[16] = system: splenocytes; assay: Cytokine secretion by splenocytes of uninfected treated mice incubated in vitro with the respective drug; assay type: cell-based, BALB/c mice; settings: splenocytes + 10 μg/ml drug
Description: as §3

[17] = cited from earlier work
[18] = system: human lymphocytes; settings: cited from earlier work
[19] = day 30 after complete treatment
[20] = day 1 after complete treatment, vs untreated infected controls

Compound: Nc1nc(O)c2[nH]cc(CNC(CO)CO)c2n1 [SMIG]
- concentrations inhibiting growth of promastigotes in vitro [1]: nanomolar to micromolar
- concentrations inhibiting growth of promastigotes in vitro [2]: nanomolar to micromolar

Compound: O=c1[nH]cnc2c([C@@H]3N[C@H](CO)[C@@H](O)[C@H]3O)c[nH]c12 [IH]
- inhibition of intracellular replication of amastigotes [3]: 95%
- concentrations inhibiting growth of promastigotes in vitro [1]: nanomolar to micromolar
- concentrations inhibiting growth of promastigotes in vitro [2]: nanomolar to micromolar
- decrease of creatinine ([4]; hamster, in vivo): 63%
- reduction of GOT levels ([4]; hamster, in vivo): ~ 30%
- reduction of blood urea levels ([4]; hamster, in vivo): ~ 50%
- body weight ([4]; infected hamsters): increase in body weight
- survival [5]: 100%
- reduction of liver parasite load (LDU) [6, 19]: 85%
- liver parasite load reduction [7]: 70%
- liver parasite load [7]: 4,905 LDU
- CD19 B cell frequencies enhanced by previous treatment [8]: sustained
- Ki [9]: 19 nM
- damage to macrophage viability [10]: no apparent damage

Compound: O=c1[nH]cnc2c(CN3C[C@H](CO)[C@@H](O)C3)c[nH]c12 [DIH]
- concentrations inhibiting growth of promastigotes in vitro [1]: nanomolar to micromolar
- concentrations inhibiting growth of promastigotes in vitro [2]: nanomolar to micromolar

Compound: 1,3,4-tiadiazolium-2 aminide
- IL-10 reduction [11]: 75%

Compound: N.N.[Cl][Pt][Cl] [cisplatin]
- IL-10 reduction [11]: 50%
- enhancement of the IgG2a response ([11]; ref 30, 31): 50–55%
- reduction in parasite burden ([12]; ref 30): 75%
- reduction in parasite burden ([12]; ref 31): 80%
- reduction in parasite burden ([12]; ref 32): 50%

Compound: Nc1nc2c(CN3C[C@H](CO)[C@@H](O)C3)c[nH]c2c(=O)[nH]1 [DIG]
- concentrations inhibiting growth of promastigotes in vitro [1]: nanomolar to micromolar
- concentrations inhibiting growth of promastigotes in vitro [2]: nanomolar to micromolar

Compound: CCCCCCCCCCCCCCCCOP(=O)([O-])OCC[N+](C)(C)C [Miltefosine]
- cure rates ([13]; Brazil): 50%
- success rates ([13]; India): 94%
- enhancement of the IgG2a response ([11]; ref 46): 75%
- reduction in parasite burden ([12]; ref 46): 50%

Compound: Glucantime [reference compound]
- body weight ([4]; infected hamsters): increase in body weight
- decrease of creatinine ([4]; infected hamsters): 41%
- reduction of blood urea levels ([4]; infected hamsters): ~ 50%
- survival [5]: 100%
- reduction of liver parasite load (LDU) [6, 20]: 46%
- reduction of liver parasite load (LDU) [6, 19]: 88%
- CD4+ T cell frequencies (in words) [8]: high CD4+ T cell increase (p<0.05) only on day 1
- CD19 B cell frequencies enhanced by previous treatment [8]: ~ 30%
- CD8+ T cell frequencies [8]: increased
- anti-NH36 IgG2a increase vs untreated infected controls ([14]; day 1): 67%
- renal (urea and creatinine) and hepatic (GOT and GTP) toxicity [15]: Pronounced toxicity
- increase in GOT serum level ([15]; 2.5 mg/kg/day ip 5 days): 6 fold
- increase in GPT serum level ([15]; 2.5 mg/kg/day ip 5 days): 9 fold
- increase in creatinine serum level ([15]; 2.5 mg/kg/day ip 5 days): 9 fold
- increase in urea serum level ([15]; 2.5 mg/kg/day ip 5 days): 4 fold
- IL-10 levels [16]: 509 pg/mL

Compound: Nc1ncnc2c([C@@H]3N[C@H](CO)[C@@H](O)[C@H]3O)c[nH]c12 [IA]
- inhibition of intracellular replication of amastigotes [3]: 95%
- metabolic stability ([17]; mouse, rat, guinea pig and cynomolgus macaque): metabolically stable
- clearance from plasma ([17]; ref 37): rapid clearance
- concentrations inhibiting growth of promastigotes in vitro [1]: nanomolar to micromolar
- concentrations inhibiting growth of promastigotes in vitro [2]: nanomolar to micromolar
- body weight ([4]; infected hamsters): increase in body weight
- decrease of creatinine ([4]; infected hamsters): 66%
- survival [5]: 100%
- reduction of liver parasite load (LDU) [6, 20]: 45%
- reduction of liver parasite load (LDU) [6, 19]: 89%
- mutagenicity or chromosomal aberrations [18]: did not induced mutagenicity or chromosomal aberrations
- liver parasite load reduction [7]: 86%
- liver parasite load [7]: 2,038 LDU
- CD19 B cell frequencies enhanced by previous treatment [8]: ~ 30%
- CD4+ T cell frequency, higher proportion than previously untreated controls ([8]; day 1): 57%
- CD8+ T cell frequencies [8]: increased
- CD4+ T cell frequency, higher proportion than previously untreated controls ([8]; day 15): 21%
- CD4+ T cell frequency, higher proportion than previously untreated controls ([8]; day 30): 29%
- anti-NH36 IgG1 in infected untreated controls higher than in treated mice ([14]; day 1): 69%
- anti-NH36 IgG1 in infected untreated controls higher than in treated mice ([14]; day 15): 64%
- anti-NH36 IgG1 in infected untreated controls higher than in treated mice ([14]; day 30): 57%
- Ki [9]: 80 nM
- IL-10 levels [16]: 113 pg/mL
- damage to macrophage viability [10]: no apparent damage
